Experiments:
Format in all cases: binding
MC3R = biological target: T1, MC3R (Homo sapiens, UniProt P41968); test: NanoBRET screen HiBiT-MC3R in HEK293; settings: MC3R
T1 construct: purchased Promega (in-house HiBiT-GPCR construct library, NanoBRET)
Protocol: (§1) Each tracer candidate was screened across the entire library of HiBiT-GPCR constructs using NanoBRET as the detection modality. As depicted in Figure 4A, the specificity of interactions was evaluated through decrease in BRET due to competitive displacement of a bound tracer by excess parental compound. Each tracer was analyzed for binding to each HiBiT-GPCR fusion in the absence and in the presence of competing parental compound. Briefly, HEK293 cells were transfected with HiBiT-GPCR constructs diluted into promoterless DNA to reduce expression and maximize translocation to the cell surface. Each tracer candidate was then screened at concentrations of 1 μM and 0.1 μM across cells expressing these fusions. Cells were treated for 1.5 h with tracer either alone or in the presence of 20 μM competing parental compound (i.e., control). BRET was measured upon addition of purified LgBiT and subsequent complementation with HiBiT genetically fused to a GPCR. The specificity of interactions was assessed through a decrease in BRET signal due to competitive displacement of the bound tracer. To further gauge the robustness of these interactions, the fold response over the control (i.e., BRETtracer/BRETcontrol) was calculated. We chose a 1.5-fold response, which translates to ≥7-fold signal over noise as the minimal threshold required to score an interaction as positive. […]. Below we highlight the screening results obtained for our exemplary fluorescent tracers based on Clozapine, Amitriptyline and AZD1283.
(§2) HiBiT-GPCR DNA constructs were diluted in 10 mM Tris pH 8 to a final concentration of 0.01 μg/μL, arrayed in 96-well plates and stored at −20 °C. For transfection, HEK293 cells were suspended in Opti-MEM (without phenol red) supplemented with 2% fetal bovine serum (Seradigm) and 100 units/mL penicillin–streptomycin (Gibco) at a final concentration of 220,000 cells/mL and dispensed into white 96-well plates at 90 μL/well. Subsequent transfections and screens were carried using an Agilent Bravo Automated Liquid Handling Platform. First, the 96-well HiBiT DNA arrays were diluted 25-fold in Opti-MEM (without serum or phenol red) to a final concentration of 0.0004 μg/μL and 20 μL of the diluted DNAs were transferred into new 96-well plates. Next, promoterless carrier DNA (1 μg/μL) was diluted 25-fold (0.04 μg/μL) and then dispensed into the diluted arrays at 20 μL/well. Following brief mixing, Viafect transfection reagent (Promega) diluted 16-fold into Opti-MEM was dispensed into the plates at 40 μL/well. After mixing by pipetting, plates were incubated for 10 min on the pipetting station deck. The DNA-transfection reagent complexes were then added to plates containing cells. To facilitate the screen, 10 μL of DNA-transfection reagent complexes were added in duplicates to the top 4 and bottom 4 rows, resulting in two identical 48-well arrays per plate. Plates with transfected cells were incubated for 18–20 h at 37 °C/5% CO2. A screen of each tracer across the entire library using two different concentrations requires duplicate plates of transfected cells. Depending on the number of tracers being screened, transfections can be scaled up using the same ratios. The next day, for each tracer, four 20× screening solutions in tracer dilution buffer (Promega) were prepared: two duplicates at final concentration of 20 μM and two duplicates at a final concentration of 2 μM. A competing unmodified compound was added to one of each duplicate at a final concentration of 400 μM. The four resulting solutions were diluted 4-fold in Opti-MEM without serum or phenol red to generate 5× solutions (5 µM and 0.5 µM tracer +/− 100 μM competing compound). To screen the library, a BioTek MultiFlo FX liquid dispenser was used to dispense 22.5 µL of tracer solution to the top 4 rows and 22.5 µL tracer + competing compound solution to the 4 bottom rows. Plates were briefly mixed on an orbital shaker and incubated for 1.5 h at room temperature. […]

NMUR1 = biological target: T2, NMUR1 (Homo sapiens, UniProt Q9HB89); test: NanoBRET screen HiBiT-NMUR1 in HEK293
T2 construct: purchased Promega (in-house HiBiT-GPCR construct library, NanoBRET)
T2 sequence (Q9HB89 1-426): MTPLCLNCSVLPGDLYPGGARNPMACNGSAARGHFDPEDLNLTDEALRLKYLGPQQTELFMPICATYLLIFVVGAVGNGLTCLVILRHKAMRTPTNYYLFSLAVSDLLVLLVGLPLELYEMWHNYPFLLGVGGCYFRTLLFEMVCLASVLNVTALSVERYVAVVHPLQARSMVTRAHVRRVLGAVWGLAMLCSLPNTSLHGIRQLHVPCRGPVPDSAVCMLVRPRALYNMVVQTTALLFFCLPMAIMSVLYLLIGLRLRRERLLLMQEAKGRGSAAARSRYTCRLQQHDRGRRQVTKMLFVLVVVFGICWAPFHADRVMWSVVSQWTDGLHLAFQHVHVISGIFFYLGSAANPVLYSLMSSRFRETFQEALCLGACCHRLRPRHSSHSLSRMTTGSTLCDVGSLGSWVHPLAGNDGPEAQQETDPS
Protocol: as §1, §2

GRM8 = biological target: T3, GRM8 (Homo sapiens, UniProt O00222); test: NanoBRET screen HiBiT-GRM8 in HEK293; settings: GRM8
T3 construct: purchased Promega (in-house HiBiT-GPCR construct library, NanoBRET)
Protocol: as §1, §2

TBXA2R = biological target: T4, TBXA2R (Homo sapiens, UniProt P21731); test: NanoBRET screen HiBiT-TBXA2R in HEK293; settings: TBXA2R
T4 construct: purchased Promega (in-house HiBiT-GPCR construct library, NanoBRET)
T4 sequence (P21731 1-343): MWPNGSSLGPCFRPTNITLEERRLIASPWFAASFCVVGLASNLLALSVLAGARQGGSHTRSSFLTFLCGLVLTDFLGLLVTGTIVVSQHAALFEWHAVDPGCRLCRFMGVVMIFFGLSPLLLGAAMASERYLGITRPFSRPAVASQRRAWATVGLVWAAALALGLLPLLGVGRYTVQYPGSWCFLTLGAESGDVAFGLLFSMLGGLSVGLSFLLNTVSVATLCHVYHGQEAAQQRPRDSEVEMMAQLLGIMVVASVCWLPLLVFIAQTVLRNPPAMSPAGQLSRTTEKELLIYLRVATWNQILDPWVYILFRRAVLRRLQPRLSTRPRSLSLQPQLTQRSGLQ
Protocol: as §1, §2

HRH3 = biological target: T5, HRH3 (Homo sapiens, UniProt Q9Y5N1); test: NanoBRET screen HiBiT-HRH3 in HEK293
T5 construct: purchased Promega (in-house HiBiT-GPCR construct library, NanoBRET)
Protocol: as §1, §2

T5 sequence (Q9Y5N1 whole entry): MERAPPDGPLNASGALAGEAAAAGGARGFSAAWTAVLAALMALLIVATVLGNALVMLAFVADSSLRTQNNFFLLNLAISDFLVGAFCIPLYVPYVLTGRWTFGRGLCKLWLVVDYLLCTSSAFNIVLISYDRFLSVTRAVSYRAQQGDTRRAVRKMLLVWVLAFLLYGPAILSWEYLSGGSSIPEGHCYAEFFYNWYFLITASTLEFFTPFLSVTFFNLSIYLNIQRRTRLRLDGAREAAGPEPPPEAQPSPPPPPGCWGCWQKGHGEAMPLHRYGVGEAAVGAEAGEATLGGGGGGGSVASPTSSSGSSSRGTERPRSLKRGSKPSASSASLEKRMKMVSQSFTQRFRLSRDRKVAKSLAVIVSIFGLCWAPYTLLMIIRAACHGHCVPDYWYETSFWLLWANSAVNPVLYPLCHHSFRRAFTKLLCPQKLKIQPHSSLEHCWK
T1 sequence (P41968 whole entry): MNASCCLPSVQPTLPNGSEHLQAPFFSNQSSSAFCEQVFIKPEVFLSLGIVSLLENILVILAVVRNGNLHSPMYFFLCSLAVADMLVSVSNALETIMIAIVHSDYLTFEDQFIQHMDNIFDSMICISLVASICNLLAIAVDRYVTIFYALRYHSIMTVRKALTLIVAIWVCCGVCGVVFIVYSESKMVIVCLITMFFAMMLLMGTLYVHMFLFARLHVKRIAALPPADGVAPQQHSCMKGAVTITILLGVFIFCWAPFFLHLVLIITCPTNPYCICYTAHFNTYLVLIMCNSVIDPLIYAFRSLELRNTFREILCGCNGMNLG
T3 sequence (O00222 34-908): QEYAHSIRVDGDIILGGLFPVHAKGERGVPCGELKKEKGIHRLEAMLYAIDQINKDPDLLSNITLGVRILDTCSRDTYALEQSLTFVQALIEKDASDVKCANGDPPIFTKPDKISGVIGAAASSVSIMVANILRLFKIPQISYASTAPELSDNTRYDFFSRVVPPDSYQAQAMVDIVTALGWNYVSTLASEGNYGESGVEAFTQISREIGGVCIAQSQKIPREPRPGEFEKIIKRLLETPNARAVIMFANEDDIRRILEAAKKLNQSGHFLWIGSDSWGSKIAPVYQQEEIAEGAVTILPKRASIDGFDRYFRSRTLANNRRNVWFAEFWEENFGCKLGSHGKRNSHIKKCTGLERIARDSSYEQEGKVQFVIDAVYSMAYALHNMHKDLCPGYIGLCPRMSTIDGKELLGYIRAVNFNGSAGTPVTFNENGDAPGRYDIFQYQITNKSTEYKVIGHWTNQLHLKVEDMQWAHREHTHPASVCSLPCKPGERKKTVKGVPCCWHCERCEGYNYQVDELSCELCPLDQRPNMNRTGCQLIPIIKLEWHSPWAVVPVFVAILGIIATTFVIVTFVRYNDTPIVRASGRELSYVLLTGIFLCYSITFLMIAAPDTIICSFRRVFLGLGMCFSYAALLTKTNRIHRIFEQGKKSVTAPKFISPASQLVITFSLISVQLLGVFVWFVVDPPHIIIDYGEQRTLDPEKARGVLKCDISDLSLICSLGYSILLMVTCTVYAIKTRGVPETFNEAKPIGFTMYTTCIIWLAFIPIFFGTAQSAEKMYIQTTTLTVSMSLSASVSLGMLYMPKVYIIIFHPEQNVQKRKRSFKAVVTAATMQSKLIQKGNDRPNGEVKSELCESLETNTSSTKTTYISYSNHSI

SMILES | NanoBRET Fold Response (MC3R; tracer 0.1μM) | NanoBRET Fold Response (MC3R; tracer 1μM) | NanoBRET Fold Response (NMUR1; NMUR1, tracer 0.1μM) | NanoBRET Fold Response (NMUR1; NMUR1, tracer 1μM) | NanoBRET Fold Response (GRM8; tracer 0.1μM) | NanoBRET Fold Response (GRM8; tracer 1μM) | NanoBRET Fold Response (TBXA2R; tracer 0.1μM) | NanoBRET Fold Response (TBXA2R; tracer 1μM) | NanoBRET Fold Response (HRH3; HRH3, tracer 0.1μM) | NanoBRET Fold Response (HRH3; HRH3, tracer 1μM) | NanoBRET Fold Response (NMUR1; tracer at 0.1μM) | NanoBRET Fold Response (NMUR1; tracer at 1μM) | NanoBRET Fold Response (HRH3; tracer at 0.1μM) | NanoBRET Fold Response (HRH3; tracer at 1μM)
COc1ccccc1N1CCN(CCCCN2C(=O)c3ccc(CNC(=O)CCOCCNC(=O)c4ccc(CNC(=O)CCc5ccc6n5[B-](F)(F)[N+]5=C(c7ccc[nH]7)C=CC5=C6)cc4)cc3C2=O)CC1 [NAN-190-3-NB590] | 1.10 | 0.95 | 1.03 | 0.96 | 1.21 | 0.96 | 1.08 | 1.15 | 1.38 | 0.93 |  |  |  | 
Cc1nc2n(c(=O)c1CCN1CCC(c3noc4cc(F)ccc34)CC1)CCCC2OC(=O)NCCOCCOCCOCCOCCNC(=O)CCc1ccc2n1[B-](F)(F)[N+]1=C(c3ccc[nH]3)C=CC1=C2 (centres unmarked) [Risperidone-2-NB590] | 0.99 | 0.95 | 1.04 | 0.97 | 1.00 | 1.04 | 0.93 | 1.01 | 1.07 | 1.58 |  |  |  | 
O=C(CCOCCOCCOCCOCCNC(=O)CCc1ccc2n1[B-](F)(F)[N+]1=C(c3ccc[nH]3)C=CC1=C2)NCCCN1CCN(C2=Nc3ccccc3Oc3ccc(Cl)cc32)CC1 [Loxapine-a-2-NB590] | 1.00 | 1.00 | 1.02 | 1.21 | 1.01 | 1.07 | 0.99 | 1.03 | 1.06 | 1.01 |  |  |  | 
COc1ccccc1N1CCN(CCCCN2C(=O)c3ccc(CNC(=O)CCOCCOCCOCCOCCNC(=O)CCc4ccc5n4[B-](F)(F)[N+]4=C(c6ccc[nH]6)C=CC4=C5)cc3C2=O)CC1 [NAN-190-2-NB590] | 1.03 | 1.00 | 0.99 | 0.98 | 1.02 |  | 1.07 | 1.06 | 0.98 | 0.97 |  |  |  | 
CN(C)CCC=C1c2ccccc2CCc2ccc(C(=O)NCCNC(=O)CCOCCOCCOCCOCCNC(=O)CCc3ccc4n3[B-](F)(F)[N+]3=C(c5ccc[nH]5)C=CC3=C4)cc21 [Amitriptyline-a-2-NB590] |  |  |  |  |  |  |  |  |  |  | 1.01 | 0.99 | 1.01 | 0.94
CN(CCC=C1c2ccccc2CCc2ccccc21)C(=O)CCOCCOCCOCCOCCNC(=O)CCc1ccc2n1[B-](F)(F)[N+]1=C(c3ccc[nH]3)C=CC1=C2 [Amitriptyline-e-2-NB590] |  |  |  |  |  |  |  |  |  |  |  |  |  | 0.95

Reference: paper PMC8151276, “An Integrated Approach toward NanoBRET Tracers for Analysis of GPCR Ligand Engagement” (Molecules, 2021)
